PubChem BioAssay (NCI)
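A five-concentration, 48-hour dose response in 96-well plates underlies each endpoint, interpolated linearly between surrounding concentrations. GI50: concentration for 50% inhibition of growth. The concentration for full growth arrest is given as TGI.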 Calls of active or inactive are those of the source. Rule as the data show it: active = GI50 below about 0.43 µM; inactive = the rest.

What was measured:
Assay in all cases: growth of human tumour cells (NCI), 48 h
K-562 leukemia = test system: K-562 leukemia
OVCAR-5 ovarian = test system: OVCAR-5 ovarian
HL-60(TB) leukemia = test system: HL-60(TB) leukemia
HCT-116 colon = test system: HCT-116 colon
HOP-62 NSCLC = test system: HOP-62 NSCLC
ACHN renal = test system: ACHN renal
IGROV1 ovarian = test system: IGROV1 ovarian
NCI-H522 lung = test system: NCI-H522 lung
RXF 393 renal = test system: RXF 393 renal

Structure (SMILES) | GI50 (K-562 leukemia) [µM] | TGI (K-562 leukemia) [µM] | GI50 (OVCAR-5 ovarian) [µM] | TGI (OVCAR-5 ovarian) [µM] | GI50 (HL-60(TB) leukemia) [µM] | TGI (HL-60(TB) leukemia) [µM] | GI50 (HCT-116 colon) [nM] | TGI (HCT-116 colon) [nM] | GI50 (HOP-62 NSCLC) [nM] | TGI (HOP-62 NSCLC) [µM] | GI50 (ACHN renal) [µM] | TGI (ACHN renal) [µM] | GI50 (IGROV1 ovarian) [µM] | TGI (IGROV1 ovarian) [µM] | GI50 (NCI-H522 lung) [µM] | TGI (NCI-H522 lung) [µM] | GI50 (RXF 393 renal) [µM] | TGI (RXF 393 renal) [µM] | outcome (HCT-116 colon) | outcome (HOP-62 NSCLC)
Cc1ccc(C(=O)NC(C)C)cc1-c1ccc(C(=O)NCC2CC2)cc1 | > 25 | > 25 | > 25 | > 25 | > 25 | > 25 | > 25000 | > 25000 | > 25000 | > 25 | > 25 | > 25 | > 25 | > 25 | > 25 | > 25 | > 25 | > 25 |  | 
CCCCCCCC(=O)OCC/C=C/C1OC1C1OC(=O)/C=C\C=C\c2nc(oc2C)/C=C(/C)CCC2OC2C1OC(=O)NC(C)=O (centres undefined) | 0.0304 | 1.51 | 0.0193 | 0.104 | 0.114 | 2.07 | 9.22 | 368 | 68.6 | 0.381 | 0.0103 | 0.933 | 0.0262 | 0.918 | 0.0192 | 0.0755 | 0.0184 | 0.0562 |  | 
O=C(Nc1ccncc1)C(=O)c1cn(S(=O)(=O)c2cccc(F)c2)c2ccccc12 | 1.65 | > 100 | > 100 | > 100 | 3.36 | > 100 | 1380 | > 100000 | 3580 | 61 | 9.5 | > 100 | 8.33 | > 100 | 1.3 | 15.7 | 8.88 | 66.8 |  | 
Cc1cc(-c2cnn3c(NCC4CC(C)(O)C4)cc(Oc4cccnc4)nc23)ccc1C(=O)NC1CC1 (centres undefined) | > 100 | > 100 | > 100 | > 100 | 1.25 | > 100 | 85.8 | > 100000 | 8570 | > 100 | 1.29 | > 100 | 0.992 | > 100 | 5.08 | > 100 | 1.55 | > 100 |  | 
CCCCCCCC[C@@H](O)CC(=O)N[C@@H](CC(N)=O)C(=O)N[C@@H](CCC(N)=O)C(=O)N[C@@H](CC(=O)c1cc(C)cc(O)c1C(=O)c1c(O)cccc1O)CC(C)C | 0.408 | > 100 |  | 27.7 | 1.89 | > 100 | 303 | 1780 | 860 | 4.92 | 3.09 | > 100 | 0.261 | > 100 | 0.228 | 0.815 | 0.214 | 0.713 |  | 
COc1ccc(-c2nc(-c3nc4ccc(Cl)cc4[nH]3)c3ccccn23)cc1 | 5.4 | 80.1 | 7.32 | 29.3 | 49.8 | > 100 | 2410 | 5500 | 1960 | 3.76 | 1.86 | 3.75 | 4.95 | 22.9 | 4.24 | 18.4 | 1.94 | 3.85 |  | 
COc1ccc(C(=O)C#Cc2cnc(OC)nc2OC)cc1 | 12100 |  | 31100 | 3.01 | 22100 |  |  | 2750 |  | 30.7 | 17200 |  | 20300 |  | 12700 |  | 26800 |  | inactive | inactive
